{"source": "patent US20210023113A1", "about": "“CONJUGATE OF CYTOTOXIC DRUG AND PRODRUG FORM OF SAID CONJUGATE” (priority 2018, published 2021)", "key": {"[1]": {"assay": "Stability of R5 and S5 in aqueous buffer (PBS)", "format": "physicochemical", "details": "phosphate buffered saline pH 6.0, any time point", "protocol": "Measurement of the Stability of R5 and S5 in Aqueous Buffer at pH 7.4 • Sample solution R5-PBS was prepared by adding 20 μL of R5 (10 mM in DMSO) to 180 μL of phosphate buffered saline (pH 7.4). • Sample solution S5-PBS was prepared by adding 20 μL of S5 (10 mM in DMSO) to 180 μL of phosphate buffered saline (pH 7.4). • Samples were incubated at 25° C. and analyzed by LCMS (Method 3) with Selected ion recording set to 924 Da (corresponding to [R5+2H]^2+/2 and [S5+2H]^2+/2) and to 933 Da (the main impurity being formed corresponding to hydrolyzed products [R5+H2O+2H]^2+/2 and [S5+H2O+2H]^2+/2). Samples were injected at the following time points: 0 min, 99 min, 195 min, 291 min, 387 min, 543 min, 699 min, 855 min, 980 min. Peak areas of the samples injected at 0 min were considered as reference peak areas. • % Peak Area was calculated as (924 Da peak area)/((924 Da peak area)+(933 Da peak area))×100%.\nThe same experiment was carried out in phosphate buffered saline at pH 6.0."}, "[2]": {"molecular_target": "T1, β-glucuronidase from Escherichia coli (Escherichia coli, UniProt P05804)", "T1 sequence (P05804 whole entry)": "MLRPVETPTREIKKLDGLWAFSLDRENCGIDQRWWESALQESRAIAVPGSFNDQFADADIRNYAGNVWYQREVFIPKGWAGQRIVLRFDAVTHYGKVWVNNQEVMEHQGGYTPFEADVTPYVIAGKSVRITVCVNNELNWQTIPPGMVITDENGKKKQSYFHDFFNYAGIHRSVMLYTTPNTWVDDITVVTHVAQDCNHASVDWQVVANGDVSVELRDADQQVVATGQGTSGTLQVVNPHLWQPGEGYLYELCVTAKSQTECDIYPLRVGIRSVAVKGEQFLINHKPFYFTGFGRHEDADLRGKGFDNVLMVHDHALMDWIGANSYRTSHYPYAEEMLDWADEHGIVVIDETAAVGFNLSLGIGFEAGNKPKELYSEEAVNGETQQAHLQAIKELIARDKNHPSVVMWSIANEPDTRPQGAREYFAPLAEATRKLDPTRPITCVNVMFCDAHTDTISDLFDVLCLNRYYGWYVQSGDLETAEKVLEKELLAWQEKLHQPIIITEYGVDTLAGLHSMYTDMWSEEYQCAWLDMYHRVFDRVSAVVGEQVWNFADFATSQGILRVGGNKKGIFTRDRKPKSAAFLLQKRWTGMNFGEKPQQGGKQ", "assay": "Kinetics of β-glucuronidase-induced release of MMAE in human plasma", "format": "biochemical", "details": "after 7 minutes of incubation with β-glucuronidase, 37° C.", "protocol": "Measurement of the Kinetics of β-glucuronidase-Induced Release of MMAE • Sample solution of R isomer was prepared by adding 10 μL of R5 (10 mM in DMSO) to 990 μL of human plasma and incubating at 37° C. for 20 min. • Sample solution of S isomer was prepared by adding 10 μL of S5 (10 mM in DMSO) to 990 μL of human plasma and incubating at 37° C. for 20 min. • Quenching solution (Q) was prepared by adding 50 μL of 1 M aqueous HCl to 1.5 mL of acetonitrile. • β-glucuronidase solution (Glu) was prepared by adding 20 μL of aqueous glycerol solution of β-glucuronidase from Escherichia coli (6.5 mg/mL) to 180 μL of H2O. • Reference solution (Ref) was prepared by adding 10 μL of MMAE (10 mM in DMSO) to 990 μL of human plasma and incubating at 37° C. for 20 min.\nTo 1 mL of each isomer and reference solution was added 40.9 uL of Glu. The resulting mixtures were incubated at 37° C. 45 μL aliquots of each solution were quenched with 155 μL of Q at the following time points: 1 min, 2 min, 3 min, 4 min, 5 min, 6 min and 7 min. Quenched aliquots were centrifuged at 15000 g for 5 min and the supernatant was analyzed by LCMS (Method 3) with Selected ion recording set to 719 Da (corresponding to [MMAE+H]^+). The amount of released MMAE at each time point was calculated as (sample peak area)/(reference peak area)×100% (FIG. 2)."}, "serum albumin": {"molecular_target": "T2, serum albumin (Homo sapiens, UniProt P02768)", "T2 construct": "adding 10 μL of R5 (10 mM in DMSO) to 990 μL of human plasma and incubating at 37° C; from tissue; host or cells: human plasma", "T2 sequence (P02768 25-609)": "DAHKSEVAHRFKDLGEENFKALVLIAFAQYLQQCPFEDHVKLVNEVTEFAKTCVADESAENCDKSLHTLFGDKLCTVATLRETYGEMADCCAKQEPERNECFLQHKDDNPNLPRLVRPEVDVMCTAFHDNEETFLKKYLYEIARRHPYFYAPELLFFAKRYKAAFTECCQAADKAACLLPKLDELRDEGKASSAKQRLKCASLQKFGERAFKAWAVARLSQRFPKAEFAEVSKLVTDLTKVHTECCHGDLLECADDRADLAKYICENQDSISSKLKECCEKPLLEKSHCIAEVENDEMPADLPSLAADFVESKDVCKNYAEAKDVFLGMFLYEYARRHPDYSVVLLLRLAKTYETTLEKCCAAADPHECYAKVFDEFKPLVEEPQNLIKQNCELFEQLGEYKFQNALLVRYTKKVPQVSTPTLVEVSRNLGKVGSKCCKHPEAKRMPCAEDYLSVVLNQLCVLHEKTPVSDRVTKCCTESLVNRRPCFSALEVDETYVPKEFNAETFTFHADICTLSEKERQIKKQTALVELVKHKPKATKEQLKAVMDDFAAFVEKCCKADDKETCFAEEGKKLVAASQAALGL", "assay": "Plasma-binding kinetics of R5 and S5", "format": "in vitro ADME", "details": "37° C.", "protocol": "Plasma-Binding Kinetics of R5 and S5 • Quenching solution (Q) was prepared by adding 50 μL of 1 M aqueous HCl to 1.5 mL of acetonitrile. • Sample solution R-Alb was prepared by adding 10 μL of R5 (10 mM in DMSO) to 990 μL of human plasma and incubating at 37° C. • Sample solution S-Alb was prepared by adding 10 μL of S5 (10 mM in DMSO) to 990 μL of human plasma and incubating at 37° C. • 45 μL aliquots of each sample solution were added to 155 μL of the quenching solution at the following time-points: 0 min, 1 min, 2 min, 3 min, 4 min, 5 min, 6 min, 7 min. • Quenched aliquots were centrifuged at 15000 g for 5 min and the supernatant was analyzed by LCMS (Method 3) with Selected ion recording set to 924 Da (corresponding to [R5+2H]^2+/2 and [S5+2H]^2+/2). Peak areas of the aliquots quenched at 0 min were considered as reference peak areas. • The % remaining free drug at each time point was calculated as (sample peak area)/(reference peak area)×100%."}, "[3]": {"molecular_target": "T1, β-glucuronidase from Escherichia coli", "assay": "Kinetics of β-glucuronidase-induced release of a cytotoxic drug (general procedure, plasma/phosphate buffer)", "format": "biochemical", "details": "after 40 minutes of incubation with β-glucuronidase, 50/50 human plasma and potassium phosphate buffer pH 7.0, 25° C.", "protocol": "General Procedure for the Measurement of the Kinetics of β-glucuronidase-Induced Release of a Cytotoxic Drug • Sample solution of R isomers was prepared by adding 5 μL of compounds R6, R7 or R8 (10 mM in DMSO) to 500 μL of a 50/50 mixture of human plasma and potassium phosphate buffer (0.1M, pH 7.0) and incubating at 37° C. for 20 min. • Sample solution of S isomers was prepared by adding 5 μL of compounds S6, S7 or S8 (10 mM in DMSO) to 500 μL of a 50/50 mixture of human plasma and potassium phosphate buffer (0.1M, pH 7.0) and incubating at 37° C. for 20 min. • Quenching solution (Q) was prepared by adding 50 μL of 1 M aqueous HCl to 1.5 mL of acetonitrile. • β-glucuronidase solution (Glu) was prepared by adding 20 μL of aqueous glycerol solution of β-glucuronidase from Escherichia coli (6.5 mg/mL) to 180 μL of H2O. • Reference solution (Ref) was prepared by adding 5 μL of a corresponding free cytotoxic drug (10 mM in DMSO) to 500 μL of a 50/50 mixture of human plasma and potassium phosphate buffer (0.1M, pH 7.0) and incubating at 37° C. for 20 min.\nTo each sample and reference solution was added 10 uL of Glu. The resulting mixtures were incubated at 25° C. 45 μL aliquots of each solution were quenched with 155 μL of Q at the precise time points indicated on the graphs (FIGS. 3-5). Quenched aliquots were centrifuged at 15000 g for 5 min and the supernatant was analyzed by LCMS (Method 3) with Selected ion recording set to [M+H]^+ where M corresponds to molecular mass of the free cytotoxic agent.\nThe amount of released cytotoxic agent at each time point was calculated as (sample peak area)/(reference peak area)×100%."}}}
{"compound": "CC[C@H](C)[C@@H]([C@@H](CC(=O)N1CCC[C@H]1[C@H](OC)[C@@H](C)C(=O)N[C@H](C)[C@@H](O)c1ccccc1)OC)N(C)C(=O)[C@@H](NC(=O)[C@H](C(C)C)N(C)C(=O)O[C@@H](Cc1cn(CCOCCOCCOCCOCCOCCOCCOCCOCCOCCOCCNC(=O)CCCCCN2C(=O)C=CC2=O)nn1)c1ccc(O[C@@H]2O[C@H](C(=O)O)[C@@H](O)[C@H](O)[C@H]2O)c([N+](=O)[O-])c1)C(C)C", "note": "[S5]", "values": [{"measurement": "degradation of compound", "setting": "[1]", "value": "No degradation"}, {"measurement": "MMAE released from plasma-bound compound", "setting": "[2]", "value": 12, "unit": "%"}, {"measurement": "compound bound to serum albumin", "setting": "serum albumin; after 2 minutes of incubation", "value": "about 90%"}, {"measurement": "conversion (binding to serum albumin)", "setting": "serum albumin; after 4 minutes", "value": "total conversion"}]}
{"compound": "CC[C@H](C)[C@@H]([C@@H](CC(=O)N1CCC[C@H]1[C@H](OC)[C@@H](C)C(=O)N[C@@H](Cc1ccccc1)C(=O)O)OC)N(C)C(=O)[C@@H](NC(=O)[C@H](C(C)C)N(C)C(=O)O[C@@H](Cc1cn(CCOCCOCCOCCOCCOCCOCCOCCOCCOCCOCCNC(=O)CCCCCN2C(=O)C=CC2=O)nn1)c1ccc(O[C@@H]2O[C@H](C(=O)O)[C@@H](O)[C@H](O)[C@H]2O)c([N+](=O)[O-])c1)C(C)C", "note": "[S6]", "values": [{"measurement": "MMAF released from plasma-bound compound", "setting": "[3]", "value": 57, "unit": "%"}]}
{"compound": "COc1cccc2c1C(=O)c1c(O)c3c(c(O)c1C2=O)C[C@@](O)(C(=O)CO)C[C@@H]3O[C@H]1C[C@H](NC(=O)O[C@@H](Cc2cn(CCOCCOCCOCCOCCOCCOCCOCCOCCOCCOCCNC(=O)CCCCCN3C(=O)C=CC3=O)nn2)c2ccc(O[C@H]3O[C@@H](C(=O)O)[C@H](O)[C@@H](O)[C@@H]3O)c([N+](=O)[O-])c2)[C@H](O)[C@H](C)O1", "note": "[S8]", "values": [{"measurement": "Doxorubicin released from plasma-bound compound", "setting": "[3]", "value": 80, "unit": "%"}]}
{"compound": "CCc1c2c(nc3ccc(OCc4ccc(NC(=O)O[C@@H](Cc5cn(CCOCCOCCOCCOCCOCCOCCOCCOCCOCCOCCNC(=O)CCCCCN6C(=O)C=CC6=O)nn5)c5ccc(O[C@H]6O[C@@H](C(=O)O)[C@H](O)[C@@H](O)[C@@H]6O)c([N+](=O)[O-])c5)cc4)cc13)-c1cc3c(c(=O)n1C2)COC(=O)[C@]3(O)CC", "note": "[S7]", "values": [{"measurement": "SN-38 released from plasma-bound compound", "setting": "[3]", "value": 18, "unit": "%"}]}
